Experimental data published in article PMC4267739, “Functional Characterization of Corynebacterium glutamicum Mycothiol S-Conjugate Amidase” (PLoS ONE, 2014).
Converted amounts (≈) assume the structure as drawn.

Key:
[1] = test system: T1, Corynebacterium glutamicum WT(pXMJ19); assay: microbe, parasite or virus in culture; design: species or system Corynebacterium glutamicum RES167 (pXMJ19); Broth dilution MIC in LB at 30 °C, serial 2-fold dilution, growth checked after 1 to 2 days; details: LB, 30 °C, wild type with empty vector pXMJ19; for MIC: Corynebacterium glutamicum, read-out: MIC (µg ml^−1) / WT(pXMJ19)
T1 construct: RES167 wild type carrying empty vector pXMJ19
Method: Disk diffusion assays were performed for antibiotics, alkylating agents, and oxidative agents according to Rawat et al.. Briefly, cells were grown to the mid-log phase and a lawn of cells was plated onto LB plates. After the paper disks were placed into the plates, various amounts of agents (10 µl) were added to the disk. The disks were allowed to dry and the plates were incubated for 2 to 3 days. For the minimal broth dilution assay, antibiotics were serially diluted (0.5×) in LB medium (1 ml) and cells (A 600 = 1.6) were inoculated. After 1 to 2 days of incubation at 30°C, the tubes were checked for growth. The bacteriostasis growth curve assay was used to determine the sensitivity of C. glutamicum to heavy metal stress. LB-grown strains (50 µl) were transferred to LB broth (5 ml), with and without addition of various concentrations of heavy metals (Cd^2+, Ni^2+, Cr^2+ and Cu^2+) and incubated at 30°C. The cellular growth was monitored turbidimetrically (A 600) after 24 h. All assays were performed in triplicate. First, sensitivity of C. glutamicum strains to Macrolides and β-Lactams was tested. […] These observations indicate that the Mca-dependent detoxification pathway indeed plays a major role in the detoxification of rifamycin S. However, no significant difference was found in the size of growth inhibition zones around erythromycin, lincomycin and spectinomycin (all belong to […]) between WT(pXMJ19), Δmca(pXMJ19) and the complementary strain Δmca(pXMJ19-mca) (Table 3; p>0.05). Similar trend was obtained in the MIC data (Table 4). […] Bacterial strains used in this study are listed in S1 Table. Escherichia coli and C. glutamicum strains were routinely cultured in Luria-Bertani (LB) broth or on LB plates at 37°C and 30°C, respectively. For generation of mutants and maintenance of C. glutamicum, brain heart infusion broth with 0.5 M sorbitol (BHIS) was used. The C. glutamicum RES167 strain was the parent of all derivatives used in this study. In-frame deletions were generated by the method as described previously. Cell growth was monitored by measuring absorbance at 600 nm (A 600). Antibiotics were added at the following concentrations: kanamycin, 50 µg ml^−1 for E. coli and 25 µg ml^−1 for C. glutamicum; nalidixic acid, 40 µg ml^−1 for C. glutamicum; chloramphenicol, 20 µg ml^−1 for E. coli and 10 µg ml^−1 for C. glutamicum.

[2] = test system: CC(=O)N[C@@H](CSCc1c(C)c(=O)n2c(=O)c(C)c(C)n12)C(=O)N[C@H]1[C@@H](O[C@@H]2[C@H](O)[C@H](O)[C@@H](O)[C@H](O)[C@H]2O)O[C@H](CO)[C@@H](O)[C@@H]1O; assay: purified protein; details: amidase activity, 10 µM enzyme, 0-10 mM MSmB, 50 mM HEPES pH 7.5, 37°C, Table 6 prints 92.34±1.5 mM and kcat unit min^-1
Excerpt: fluorescamine assay of released amine, Eadie-Hofstee on C. glutamicum Mca (mycothiol S-conjugate amidase; His6-Mca)

Row | Compound | MIC [1] [µg/mL] | other results
1 | O=C(O)c1cn(C2CC2)c2cc(N3CCNCC3)c(F)cc2c1=O [Ciprofloxacin] | 1.56 (≈ 4.71 µM) | 
2 | CCC[C@@H]1C[C@@H](C(=O)N[C@@H]([C@H]2O[C@H](SC)[C@H](O)[C@@H](O)[C@H]2O)[C@@H](C)O)N(C)C1 [Lincomycin] | 62.5 (≈ 154 µM) | 
3 | NC[C@@H]1O[C@H](O[C@H]2[C@@H](O)[C@H](O[C@@H]3[C@@H](O)[C@H](N)C[C@H](N)[C@H]3O[C@H]3O[C@H](CN)[C@@H](O)[C@H](O)[C@H]3N)O[C@@H]2CO)[C@H](N)[C@@H](O)[C@@H]1O [Neomycin] | 7.5 (≈ 12.2 µM) | 
4 | CC1(C)S[C@@H]2[C@H](NC(=O)Cc3ccccc3)C(=O)N2[C@H]1C(=O)O [Penicillin] | > 350 | 
5 | CN[C@@H]1[C@H](O)[C@H](NC)[C@H]2O[C@@]3(O)C(=O)C[C@@H](C)O[C@H]3O[C@@H]2[C@H]1O [Spectinomycin] | 128 (≈ 385 µM) | 
6 | CN[C@@H]1[C@H](O[C@H]2[C@H](O[C@H]3[C@H](O)[C@@H](O)[C@H](N=C(N)N)[C@@H](O)[C@@H]3N=C(N)N)O[C@@H](C)[C@]2(O)C=O)O[C@@H](CO)[C@H](O)[C@H]1O [Streptomycin] |  | MIC (µg ml^−1) / WT(pXMJ19) ([1]; inhibitor): 1.25 ug/mL
7 | CN(C)[C@@H]1C(O)=C(C(N)=O)C(=O)[C@@]2(O)C(O)=C3C(=O)c4c(O)cccc4[C@@](C)(O)[C@H]3C[C@@H]12 [Tetracycline] | 3.12 (≈ 7.03 µM) | 
8 | CN[C@H](CC(C)C)C(=O)N[C@H]1C(=O)N[C@@H](CC(N)=O)C(=O)N[C@H]2C(=O)N[C@H]3C(=O)N[C@H](C(=O)N[C@H](C(=O)O)c4cc(O)cc(O)c4-c4cc3ccc4O)[C@H](O)c3ccc(c(Cl)c3)Oc3cc2cc(c3O[C@@H]2O[C@H](CO)[C@@H](O)[C@H](O)[C@H]2O[C@H]2C[C@](C)(N)[C@H](O)[C@H](C)O2)Oc2ccc(cc2Cl)[C@H]1O [Vancomycin] | 32 (≈ 22.1 µM) | 
9 | C. glutamicum Mca (mycothiol S-conjugate amidase; His6-Mca) (Corynebacterium glutamicum ATCC 13032) |  | Km [2]: 92.30 ± 1.5 mM; kcat [2]: 3.56 ± 0.9 s⁻¹; kcat/Km [2]: 38.5 ± 9.6 M⁻¹ s⁻¹

The next lines start with results.

Row | MIC [1] [µg/mL] | Compound | other results
10 | 25 (≈ 34.1 µM) | CC[C@H]1OC(=O)[C@H](C)[C@@H](O[C@H]2C[C@@](C)(OC)[C@@H](O)[C@H](C)O2)[C@H](C)[C@@H](O[C@@H]2O[C@H](C)C[C@H](N(C)C)[C@H]2O)[C@](C)(O)C[C@@H](C)C(=O)[C@H](C)[C@@H](O)[C@]1(C)O [Erythromycin] | 
11 | 12.5 (≈ 18 µM) | CO[C@H]1/C=C/O[C@@]2(C)Oc3c(C)c(O)c4c(c3C2=O)C(=O)C=C(NC(=O)/C(C)=C\C=C\[C@H](C)[C@H](O)[C@@H](C)[C@@H](O)[C@@H](C)[C@H](OC(C)=O)[C@@H]1C)C4=O [Rifamycin S] | 
